Test results as given in US20240218022A1, “ANTI-VISTA MACROCYCLIC PEPTIDES AND COMPOSITIONS” (BRISTOL-MYERS SQUIBB COMPANY, priority 2022, published 2024).
Positions of bridges follow the written chain, without caps; N, C: chain ends. Non-standard residues stand in square brackets, D forms with d. Residues, ends and D or L forms follow the SMILES beside them. 2Nal = N[C@@H](Cc1ccc2ccccc2c1)C(=O)O; Cit = NC(=O)NCCC[C@H](N)C(=O)O; Ahp(2) = CCCCC[C@H](N)C(=O)O; NMeNle = CCCC[C@H](NC)C(=O)O; NHexGly = CCCCCCNCC(=O)O; Nle = CCCC[C@H](N)C(=O)O; Orn = NCCC[C@H](N)C(=O)O; NBuGly = CCCCNCC(=O)O

Molecular target: T1, mouse VISTA (mVISTA) (Mus musculus, UniProt Q9D659)
T1 construct: expressed in transfected cells; host or cells: Human embryonic kidney 293T cells
T1 sequence (Q9D659 33-308): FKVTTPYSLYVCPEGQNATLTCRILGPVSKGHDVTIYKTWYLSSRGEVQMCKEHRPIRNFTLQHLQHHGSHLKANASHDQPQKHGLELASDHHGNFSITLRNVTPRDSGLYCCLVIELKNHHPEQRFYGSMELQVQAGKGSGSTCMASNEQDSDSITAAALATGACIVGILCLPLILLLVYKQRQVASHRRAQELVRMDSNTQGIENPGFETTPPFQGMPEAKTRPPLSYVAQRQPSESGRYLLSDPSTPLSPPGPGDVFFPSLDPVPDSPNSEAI
Experiment: Cell-Based Binding High-Content Assay For mVISTA (HC CBA mVISTA)
Settings: cell-based binding high-content assay, mVISTA; the 16th table; read-out: HC CBA mVISTA IC50
Protocol: Cell-Based Binding High-Content Assay For mVISTA
Human embryonic kidney 293T cells (293T) expressing mouse VISTA (mVISTA) were used for the assessment of compounds competing with the binding of a biotinylated peptide. Cryopreserved cells were thawed in a 37° C. water bath and incubated overnight at a 37° C./5% CO2 incubator in assay culture media DMEM (Life Technologies Inc. Cat. No. 11995-126) supplemented with 10% (v/v) FBS (Sigma, Cat. No. F4135), 1× Penicillin/Streptomycin (Life Technologies Inc. Cat. No. 15140-122). Cells were harvested, washed and resuspended in DMEM media […]. To test compounds under “no-wash” condition, cells were seeded into PDL-coated 384 well plates (Corning, Cat. No. 356663) at 4,000 cells/20 μL. After incubating the cell plates for two hours at a 37° C./5% CO2 incubator, 125 nL of test compound was added using an ECHO. Alternatively, to test compounds under “wash” condition, test compounds were added first, followed by addition of 20 μL cells at a density of 4000 cells/well. After incubation for an hour, the media was removed, followed by addition of 20 μL of fresh media ( ), and plates were then incubated for another hour. To plates either under “no wash” or “wash” condition, the biotinylated peptide was added to a final concentration of 2 nM, and plates were incubated at room temperature for 30 minutes. Fifteen (15) μL of Alexa 647 conjugated Streptavidin (Life Tech, Cat. No. S21374), suspended at 2 μg/ml in media, was added to the assay plate and incubate for 30 minutes. Cells were fixed by adding 15 μL of formaldehyde at a final concentration of 8% (w/v) (Sigma Cat. No. 252549), 20 μg/mL Hoechst (Thermo Scientific Cat. No. 62249) in PBS for 10 minutes at room temperature. The plates were washed 3 times in dPBS, sealed, and read on a CellInsight NXT High Content Screening Platform IC903000 (Thermo Scientific). The 50% effective concentration (IC50) was calculated using the four-parameter logistic formula y=A+((B−A)/(1+((C/x)^D))), where A and B denote minimal and maximal % inhibition, respectively, C is the EC50, D is hill slope and x represent compound concentration.

SMILES | IC50 [nM]
CCCCCCN1CC(=O)N[C@@H](Cc2ccc(O)cc2)C(=O)N[C@@H](CCCC)C(=O)N[C@@H](CC(=O)O)C(=O)N[C@@H](CCCNC(N)=O)C(=O)N(C)[C@@H](CCCC)C(=O)N[C@@H](CCCCC)C(=O)N2CCC[C@H]2C(=O)N[C@@H](C(C)C)C(=O)N[C@@H](CC(=O)O)C(=O)N[C@H](C(=O)N[C@@H](CC(=O)O)C(N)=O)CSCC(=O)N[C@@H](Cc2ccc3ccccc3c2)C(=O)N[C@@H](Cc2ccc(O)cc2)C(=O)N[C@@H](CC(=O)O)C1=O [Ex 1265] ({CH2CO}-[2Nal]YD[NHexGly]Y[Nle]D[Cit][NMeNle][Ahp(2)]PVDCD-NH2; thioether N-14) | 9
CCCCCCN1CC(=O)N[C@@H](Cc2ccc(O)cc2)C(=O)N[C@@H](CCCC)C(=O)N[C@@H](CC(=O)O)C(=O)N[C@@H](CCCNC(=N)N)C(=O)N(C)[C@@H](CCCC)C(=O)N[C@@H](CCCCC)C(=O)N2CCC[C@H]2C(=O)N[C@@H](C(C)C)C(=O)N[C@@H](CC(=O)O)C(=O)N[C@H](C(=O)N[C@@H](CC(=O)O)C(N)=O)CSCC(=O)N[C@@H](Cc2ccc3ccccc3c2)C(=O)N[C@@H](Cc2ccc(O)cc2)C(=O)N[C@@H](CC(=O)O)C1=O [Ex 1266] ({CH2CO}-[2Nal]YD[NHexGly]Y[Nle]DR[NMeNle][Ahp(2)]PVDCD-NH2; thioether N-14) | 6.5
CCCCCCN1CC(=O)N[C@@H](Cc2ccc(O)cc2)C(=O)N[C@@H](CCCC)C(=O)N[C@@H](CC(=O)O)C(=O)N[C@@H](CCCNC(=N)N)C(=O)N[C@@H](CC(C)C)C(=O)N[C@@H](CCCCC)C(=O)N2CCC[C@H]2C(=O)N[C@@H](C(C)C)C(=O)N[C@@H](CC(=O)O)C(=O)N[C@H](C(=O)N[C@@H](CC(=O)O)C(N)=O)CSCC(=O)N[C@@H](Cc2ccc3ccccc3c2)C(=O)N[C@@H](Cc2ccc(O)cc2)C(=O)N[C@@H](CC(=O)O)C1=O [Ex 1267] ({CH2CO}-[2Nal]YD[NHexGly]Y[Nle]DRL[Ahp(2)]PVDCD-NH2; thioether N-14) | 15.3
CCCCCCN1CC(=O)N[C@@H](Cc2ccc(O)cc2)C(=O)N[C@@H](CCCC)C(=O)N[C@@H](CC(=O)O)C(=O)N[C@@H](CCCN)C(=O)N[C@@H](CC(C)C)C(=O)N[C@@H](CCCCC)C(=O)N2CCC[C@H]2C(=O)N[C@@H](C(C)C)C(=O)N[C@@H](CC(=O)O)C(=O)N[C@H](C(=O)N[C@@H](CC(=O)O)C(N)=O)CSCC(=O)N[C@@H](Cc2ccc3ccccc3c2)C(=O)N[C@@H](Cc2ccc(O)cc2)C(=O)N[C@@H](CC(=O)O)C1=O [Ex 1268] ({CH2CO}-[2Nal]YD[NHexGly]Y[Nle]D[Orn]L[Ahp(2)]PVDCD-NH2; thioether N-14) | 9.7
CCCCC[C@@H]1NC(=O)[C@H](CC(C)C)NC(=O)[C@H](CCCNC(=N)N)NC(=O)CNC(=O)[C@H](C(C)C)NC(=O)[C@H](Cc2ccc(O)cc2)NC(=O)CN(CCCC)C(=O)[C@H](CC(=O)O)NC(=O)[C@H](Cc2ccc(O)cc2)NC(=O)[C@H](Cc2ccc3ccccc3c2)NC(=O)CSC[C@@H](C(=O)NCC(=O)O)NC(=O)[C@H](CC(=O)O)NC(=O)[C@H](C(C)C)NC(=O)[C@@H]2CCCN2C1=O [Ex 1269] ({CH2CO}-[2Nal]YD[NBuGly]YVGRL[Ahp(2)]PVDCG-OH; thioether N-14) | 15.7
CCCCC[C@@H]1NC(=O)[C@H](CC(C)C)NC(=O)[C@H](CCCNC(=N)N)NC(=O)[C@H](CC(N)=O)NC(=O)[C@H](CCCC)NC(=O)[C@H](Cc2ccc(O)cc2)NC(=O)CN(CCCC)C(=O)[C@H](CC(=O)O)NC(=O)[C@H](Cc2ccc(O)cc2)NC(=O)[C@H](Cc2ccc3ccccc3c2)NC(=O)CSC[C@@H](C(=O)NCC(=O)O)NC(=O)[C@H](CC(=O)O)NC(=O)[C@H](C(C)C)NC(=O)[C@@H]2CCCN2C1=O [Ex 1270] ({CH2CO}-[2Nal]YD[NBuGly]Y[Nle]NRL[Ahp(2)]PVDCG-OH; thioether N-14) | 2.4
CCCCC[C@@H]1NC(=O)[C@H](CC(C)C)NC(=O)[C@H](CCCNC(=N)N)NC(=O)[C@H](CC(N)=O)NC(=O)[C@H](CCCC)NC(=O)[C@H](Cc2ccc(O)cc2)NC(=O)CN(CCCC)C(=O)[C@H](CC(=O)O)NC(=O)[C@H](Cc2ccc(O)cc2)NC(=O)[C@H](Cc2ccc3ccccc3c2)NC(=O)CSC[C@@H](C(=O)NCC(N)=O)NC(=O)[C@H](CC(=O)O)NC(=O)[C@H](C(C)C)NC(=O)[C@@H]2CCCN2C1=O [Ex 1271] ({CH2CO}-[2Nal]YD[NBuGly]Y[Nle]NRL[Ahp(2)]PVDCG-NH2; thioether N-14) | 8
CCCCCCN1CC(=O)N[C@@H](Cc2ccc(O)cc2)C(=O)N[C@@H](CCCC)C(=O)N[C@@H](CC(N)=O)C(=O)N[C@@H](CCCNC(=N)N)C(=O)N[C@@H](CC(C)C)C(=O)N[C@@H](CCCCC)C(=O)N2CCC[C@H]2C(=O)N[C@@H](C(C)C)C(=O)N[C@@H](CO)C(=O)N[C@H](C(=O)NCC(=O)O)CSCC(=O)N[C@@H](Cc2ccc3ccccc3c2)C(=O)N[C@@H](Cc2ccc(O)cc2)C(=O)N[C@@H](CC(=O)O)C1=O [Ex 1272] ({CH2CO}-[2Nal]YD[NHexGly]Y[Nle]NRL[Ahp(2)]PVSCG-OH; thioether N-14) | 2.8

Other lines, results leading:

IC50 [nM] | SMILES
14.3 | CCCCCCN1CC(=O)N[C@@H](Cc2ccc(O)cc2)C(=O)N[C@@H](CCCCC)C(=O)NCC(=O)N[C@@H](CCCNC(=N)N)C(=O)N[C@@H](CC(C)C)C(=O)N[C@@H](CCCCC)C(=O)N2CCC[C@H]2C(=O)N[C@@H](C(C)C)C(=O)N[C@@H](CO)C(=O)N[C@H](C(=O)NCC(N)=O)CSCC(=O)N[C@@H](Cc2ccc3ccccc3c2)C(=O)N[C@@H](Cc2ccc(O)cc2)C(=O)N[C@@H](CC(=O)O)C1=O [Ex 1273] ({CH2CO}-[2Nal]YD[NHexGly]Y[Ahp(2)]GRL[Ahp(2)]PVSCG-NH2; thioether N-14)
32 | CCCCCCN1CC(=O)N[C@@H](Cc2ccc(O)cc2)C(=O)N[C@@H](CC(C)C)C(=O)NCC(=O)N[C@@H](CCCNC(=N)N)C(=O)N[C@@H](CC(C)C)C(=O)N[C@@H](CCCCC)C(=O)N2CCC[C@H]2C(=O)N[C@@H](C(C)C)C(=O)N[C@@H](CO)C(=O)N[C@H](C(=O)NCC(=O)O)CSCC(=O)N[C@@H](Cc2ccc3ccccc3c2)C(=O)N[C@@H](Cc2ccc(O)cc2)C(=O)N[C@@H](CC(=O)O)C1=O [Ex 1274] ({CH2CO}-[2Nal]YD[NHexGly]YLGRL[Ahp(2)]PVSCG-OH; thioether N-14)
35.9 | CCCCCCN1CC(=O)N[C@@H](Cc2ccc(O)cc2)C(=O)N[C@@H](CC(C)C)C(=O)NCC(=O)N[C@@H](CCCNC(=N)N)C(=O)N[C@@H](CC(C)C)C(=O)N[C@@H](CCCCC)C(=O)N2CCC[C@H]2C(=O)N[C@@H](C(C)C)C(=O)N[C@@H](CO)C(=O)N[C@H](C(=O)NCC(N)=O)CSCC(=O)N[C@@H](Cc2ccc3ccccc3c2)C(=O)N[C@@H](Cc2ccc(O)cc2)C(=O)N[C@@H](CC(=O)O)C1=O [Ex 1275] ({CH2CO}-[2Nal]YD[NHexGly]YLGRL[Ahp(2)]PVSCG-NH2; thioether N-14)
40.6 | CCCCCCN1CC(=O)N[C@@H](Cc2ccc(O)cc2)C(=O)N[C@@H](CCCC)C(=O)NCC(=O)N[C@@H](CCCNC(=N)N)C(=O)N[C@@H](CC(C)C)C(=O)N[C@@H](CCCCC)C(=O)N2CCC[C@H]2C(=O)N[C@@H](C(C)C)C(=O)N[C@@H](CO)C(=O)N[C@H](C(=O)NCC(N)=O)CSCC(=O)N[C@@H](Cc2ccc3ccccc3c2)C(=O)N[C@@H](Cc2ccc(O)cc2)C(=O)N[C@@H](CC(=O)O)C1=O [Ex 1276] ({CH2CO}-[2Nal]YD[NHexGly]Y[Nle]GRL[Ahp(2)]PVSCG-NH2; thioether N-14)
23.2 | CCCCCCN1CC(=O)N[C@@H](Cc2ccc(O)cc2)C(=O)N[C@@H](C(C)C)C(=O)NCC(=O)N[C@@H](CCCNC(=N)N)C(=O)N[C@@H](CC(C)C)C(=O)N[C@@H](CCCCC)C(=O)N2CCC[C@H]2C(=O)N[C@@H](C(C)C)C(=O)N[C@@H](CO)C(=O)N[C@H](C(=O)NCC(=O)O)CSCC(=O)N[C@@H](Cc2ccc3ccccc3c2)C(=O)N[C@@H](Cc2ccc(O)cc2)C(=O)N[C@@H](CC(=O)O)C1=O [Ex 1277] ({CH2CO}-[2Nal]YD[NHexGly]YVGRL[Ahp(2)]PVSCG-OH; thioether N-14)
